According to ChEMBL document CHEMBL1201862, “PubChem BioAssay data set” (2004):
The source made the active and inactive calls.

Columns and labels:
[1] = target: Mitochondrial peptide methionine sulfoxide reductase (Bos taurus, UniProt P54149); type: functional;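 further: absorbance read-out, biochemical high-throughput dose-response screen for MsrA inhibitors, confirmatory; recombinant bovine MsrA coupled to E. coli TrxB with NADPH and selenocystamine; potency is for inhibitors of MsrA activity on DMSO substrate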
Chain of Mitochondrial peptide methionine sulfoxide reductase (P54149 whole entry): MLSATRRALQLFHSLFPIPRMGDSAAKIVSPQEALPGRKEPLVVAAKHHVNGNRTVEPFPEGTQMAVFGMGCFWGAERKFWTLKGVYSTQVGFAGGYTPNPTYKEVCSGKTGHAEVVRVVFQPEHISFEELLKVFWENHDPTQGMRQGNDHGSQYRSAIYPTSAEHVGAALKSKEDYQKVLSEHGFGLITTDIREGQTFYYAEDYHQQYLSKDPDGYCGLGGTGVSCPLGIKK

[2] = CRF-BP/CRF-R2 complex antagonists, dose response, cell-based, uHTS hits, 384-well (AID 651639); type: functional, Homo sapiens; settings: read-out: IC50_Mean
[3] = target: T1, Corticotropin-releasing factor receptor 2/Corticotropin-releasing factor-binding protein (Homo sapiens, UniProt P24387+Q13324); assay: activators of CRF receptor 2 with binding protein – uHTS hits, confirmation (AID 602473); type: functional; settings: read-out: EC50_Mean
T1 sequence (Q13324 whole entry): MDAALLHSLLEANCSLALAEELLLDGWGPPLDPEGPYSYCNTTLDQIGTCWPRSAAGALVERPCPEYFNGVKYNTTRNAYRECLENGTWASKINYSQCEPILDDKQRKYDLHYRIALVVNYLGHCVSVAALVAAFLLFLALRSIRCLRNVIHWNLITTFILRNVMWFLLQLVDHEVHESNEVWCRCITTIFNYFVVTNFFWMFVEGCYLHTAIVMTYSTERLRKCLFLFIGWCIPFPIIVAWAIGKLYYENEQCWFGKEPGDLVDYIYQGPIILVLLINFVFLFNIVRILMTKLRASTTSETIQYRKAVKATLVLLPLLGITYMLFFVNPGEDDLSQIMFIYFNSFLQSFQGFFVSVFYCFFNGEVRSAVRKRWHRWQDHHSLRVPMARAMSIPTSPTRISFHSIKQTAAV
T1 sequence (P24387 whole entry): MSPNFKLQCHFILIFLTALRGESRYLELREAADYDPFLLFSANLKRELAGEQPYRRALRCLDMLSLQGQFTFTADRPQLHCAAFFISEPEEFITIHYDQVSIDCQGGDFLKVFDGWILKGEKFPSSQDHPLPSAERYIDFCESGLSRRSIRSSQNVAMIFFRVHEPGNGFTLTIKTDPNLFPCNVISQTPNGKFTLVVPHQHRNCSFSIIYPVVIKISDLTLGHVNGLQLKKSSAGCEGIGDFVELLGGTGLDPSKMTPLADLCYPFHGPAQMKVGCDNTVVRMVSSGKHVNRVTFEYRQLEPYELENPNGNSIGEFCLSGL

[4] = target: T1, Corticotropin-releasing factor receptor 2/Corticotropin-releasing factor-binding protein; assay: Dose Response confirmation of uHTS hits for small molecule antagonists of the CRF-binding protein and CRF-R2 receptor complex.; type: functional; settings: read-out: IC50_Mean
[5] = target: Sentrin-specific protease 1 (Homo sapiens, UniProt Q9P0U3); assay: Dose response confirmation of small molecule inhibitors of the catalytic domain of the SUMO protease, SENP1 in a FRET assay.; type: functional; settings: read-out: IC50_Mean
Chain of Sentrin-specific protease 1 (Q9P0U3 whole entry, the tested form may be a part): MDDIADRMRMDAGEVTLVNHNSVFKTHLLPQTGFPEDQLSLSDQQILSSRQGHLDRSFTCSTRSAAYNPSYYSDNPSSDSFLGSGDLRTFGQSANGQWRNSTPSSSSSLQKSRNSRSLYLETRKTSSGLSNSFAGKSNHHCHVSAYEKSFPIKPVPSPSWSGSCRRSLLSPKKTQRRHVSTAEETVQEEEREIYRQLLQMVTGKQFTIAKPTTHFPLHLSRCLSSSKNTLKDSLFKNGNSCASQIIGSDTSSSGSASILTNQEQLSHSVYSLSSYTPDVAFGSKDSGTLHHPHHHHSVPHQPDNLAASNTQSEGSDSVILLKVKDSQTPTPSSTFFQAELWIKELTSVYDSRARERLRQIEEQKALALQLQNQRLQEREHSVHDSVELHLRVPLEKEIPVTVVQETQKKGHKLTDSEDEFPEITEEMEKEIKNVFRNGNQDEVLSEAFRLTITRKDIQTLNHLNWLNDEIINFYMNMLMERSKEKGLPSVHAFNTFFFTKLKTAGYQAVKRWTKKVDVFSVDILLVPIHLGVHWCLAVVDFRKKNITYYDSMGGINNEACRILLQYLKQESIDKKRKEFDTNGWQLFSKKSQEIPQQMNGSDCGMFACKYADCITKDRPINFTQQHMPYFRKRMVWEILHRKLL

[6] = target: T2, Sentrin-specific protease 8 (Homo sapiens, UniProt Q96LD8); type: functional;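 further: kinetic enzyme assay of SENP8 cleaving a Nedd8 protein substrate, dose-response confirmation of screening hits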
T2 sequence (Q96LD8 whole entry): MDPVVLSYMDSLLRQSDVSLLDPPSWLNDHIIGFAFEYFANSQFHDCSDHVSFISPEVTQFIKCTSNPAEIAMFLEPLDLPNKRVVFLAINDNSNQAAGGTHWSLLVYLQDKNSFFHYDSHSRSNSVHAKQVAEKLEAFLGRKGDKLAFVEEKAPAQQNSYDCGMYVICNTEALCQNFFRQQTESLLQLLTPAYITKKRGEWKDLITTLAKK

[7] = target: T3, Tyrosyl-DNA phosphodiesterase 2 (Homo sapiens, UniProt O95551); assay: human TDP2 enzyme inhibitors, dose response, biochemical, epi absorbance, IC50 (AID 743297)
T3 sequence (O95551 whole entry): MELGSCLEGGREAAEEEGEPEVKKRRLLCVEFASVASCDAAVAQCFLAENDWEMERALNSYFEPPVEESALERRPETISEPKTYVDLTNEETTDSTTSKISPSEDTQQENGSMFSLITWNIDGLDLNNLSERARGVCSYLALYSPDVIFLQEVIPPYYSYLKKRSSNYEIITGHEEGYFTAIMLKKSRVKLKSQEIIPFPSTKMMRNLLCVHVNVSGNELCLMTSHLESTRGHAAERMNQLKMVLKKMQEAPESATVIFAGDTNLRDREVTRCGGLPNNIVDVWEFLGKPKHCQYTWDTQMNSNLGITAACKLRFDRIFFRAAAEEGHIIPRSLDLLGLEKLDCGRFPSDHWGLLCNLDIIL

Protein RecA = target: T4, Protein RecA (Mycobacterium tuberculosis, UniProt P9WHJ3); assay: Fluorescence Cell-Free Homogeneous Dose Retest to Identify Inhibitors of RecA-Intein Splicing Activity. [Related pubchem assays (depositor defined):AID2097, AID2223, AID489010, AID492950]; type: functional
T4 sequence (P9WHJ3 whole entry): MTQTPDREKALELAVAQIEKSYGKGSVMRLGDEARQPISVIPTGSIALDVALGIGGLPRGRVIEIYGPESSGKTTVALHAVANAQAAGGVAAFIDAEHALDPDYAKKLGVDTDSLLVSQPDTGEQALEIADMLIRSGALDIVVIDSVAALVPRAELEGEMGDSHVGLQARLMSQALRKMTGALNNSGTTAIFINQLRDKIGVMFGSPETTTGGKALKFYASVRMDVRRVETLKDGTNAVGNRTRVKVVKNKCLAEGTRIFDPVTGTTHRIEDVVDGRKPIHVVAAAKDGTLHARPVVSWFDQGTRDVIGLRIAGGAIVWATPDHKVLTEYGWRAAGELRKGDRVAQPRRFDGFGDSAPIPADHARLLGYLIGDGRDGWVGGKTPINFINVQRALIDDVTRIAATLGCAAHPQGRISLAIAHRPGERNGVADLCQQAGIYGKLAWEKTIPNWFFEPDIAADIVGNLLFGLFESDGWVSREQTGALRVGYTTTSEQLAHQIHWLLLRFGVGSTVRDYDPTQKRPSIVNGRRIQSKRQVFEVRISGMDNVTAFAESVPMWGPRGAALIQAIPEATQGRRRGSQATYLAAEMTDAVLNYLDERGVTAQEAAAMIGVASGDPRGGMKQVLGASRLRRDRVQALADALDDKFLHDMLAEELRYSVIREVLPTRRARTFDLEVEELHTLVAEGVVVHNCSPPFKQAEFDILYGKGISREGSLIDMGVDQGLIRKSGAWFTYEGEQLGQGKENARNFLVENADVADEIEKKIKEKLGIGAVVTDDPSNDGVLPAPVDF

[8] = target: T5, Replicative DNA helicase DnaB (Mycobacterium tuberculosis, UniProt P9WMR3); assay: DnaB intein splicing inhibitors, dose response, biochemical, cell-free fluorescence (AID 449749); type: functional
T5 sequence (P9WMR3 whole entry): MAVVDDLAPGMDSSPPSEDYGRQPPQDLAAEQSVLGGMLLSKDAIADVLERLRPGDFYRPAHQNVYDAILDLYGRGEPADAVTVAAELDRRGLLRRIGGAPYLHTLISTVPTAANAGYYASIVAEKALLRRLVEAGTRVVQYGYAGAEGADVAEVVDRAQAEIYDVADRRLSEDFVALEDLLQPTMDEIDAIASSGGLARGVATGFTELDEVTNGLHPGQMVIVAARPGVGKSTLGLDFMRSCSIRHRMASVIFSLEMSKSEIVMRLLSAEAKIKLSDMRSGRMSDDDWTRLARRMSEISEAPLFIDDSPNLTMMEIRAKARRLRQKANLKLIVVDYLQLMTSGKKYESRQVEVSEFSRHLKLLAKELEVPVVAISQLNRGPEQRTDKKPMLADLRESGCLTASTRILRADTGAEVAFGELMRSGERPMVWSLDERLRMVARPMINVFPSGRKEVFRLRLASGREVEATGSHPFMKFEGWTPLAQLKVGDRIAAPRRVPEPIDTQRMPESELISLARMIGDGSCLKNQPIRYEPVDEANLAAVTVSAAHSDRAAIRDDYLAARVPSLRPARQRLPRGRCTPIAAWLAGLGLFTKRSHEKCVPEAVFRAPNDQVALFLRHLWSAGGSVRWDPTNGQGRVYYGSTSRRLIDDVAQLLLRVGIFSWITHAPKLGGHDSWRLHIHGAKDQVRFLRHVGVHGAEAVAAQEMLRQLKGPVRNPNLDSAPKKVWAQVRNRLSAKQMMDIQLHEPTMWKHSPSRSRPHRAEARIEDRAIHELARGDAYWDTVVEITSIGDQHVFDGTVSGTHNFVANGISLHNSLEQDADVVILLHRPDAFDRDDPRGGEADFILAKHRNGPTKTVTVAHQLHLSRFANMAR

[9] = inhibitors of HIV Env-driven cell fusion, dose response, cherry-pick (AID 652057); type: functional, cell-based
[10] = off-target signal loss in HeLa-CEM21 co-culture – HeLa F-luc CTL cells, cherry-picked, counter-screen for HIV-1 Env fusion inhibitor project, dose response (AID 652040); type: functional, cell-based;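 further: potency for signal decrease marking cytotoxic or nonspecific inhibition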
[11] = inhibitors of clade B AD8 Env fusion, dose response, cell-based, cherry-pick (AID 652062); type: functional;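 further: luciferase signal from cell-cell fusion driven by HIV-1 clade B AD8 Env; potency is for inhibitors of fusion seen as a drop in luminescence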
Interleukin-8 = Interleukin-8 (Homo sapiens, UniProt P10145); assay: Dose Response confirmation of uHTS small molecule hits for cystic fibrosis induced NFkb Inhibitors in a PAF-induced IL8 counterscreen.; type: functional; settings: read-out: IC50_Mean
Chain of Interleukin-8 (P10145 whole entry): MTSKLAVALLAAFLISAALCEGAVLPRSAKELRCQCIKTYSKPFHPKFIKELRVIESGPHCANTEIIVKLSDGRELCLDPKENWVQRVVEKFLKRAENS

[12] = target: T6, Small ubiquitin-related modifier 2 (Homo sapiens, UniProt P61956); assay: inhibitors of SUMO2 protein-protein interaction, dose response, selectivity assay for SUMO1 interaction inhibitor project, biochemical, FRET, human SUMO2, uHTS hits (AID 624384); type: functional; settings: read-out: IC50_Mean
T6 sequence (P61956 whole entry): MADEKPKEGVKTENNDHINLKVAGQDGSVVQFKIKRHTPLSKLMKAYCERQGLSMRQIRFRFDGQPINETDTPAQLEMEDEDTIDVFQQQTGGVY

Genome polyprotein = Genome polyprotein (dengue virus type 2, UniProt P29990); assay: Dengue-2 NS5 methyltransferase inhibitors, primary screen, biochemical, confirmation dose response (AID 588689); type: functional
Chain of Genome polyprotein (P29990 2492-3391 limits assumed): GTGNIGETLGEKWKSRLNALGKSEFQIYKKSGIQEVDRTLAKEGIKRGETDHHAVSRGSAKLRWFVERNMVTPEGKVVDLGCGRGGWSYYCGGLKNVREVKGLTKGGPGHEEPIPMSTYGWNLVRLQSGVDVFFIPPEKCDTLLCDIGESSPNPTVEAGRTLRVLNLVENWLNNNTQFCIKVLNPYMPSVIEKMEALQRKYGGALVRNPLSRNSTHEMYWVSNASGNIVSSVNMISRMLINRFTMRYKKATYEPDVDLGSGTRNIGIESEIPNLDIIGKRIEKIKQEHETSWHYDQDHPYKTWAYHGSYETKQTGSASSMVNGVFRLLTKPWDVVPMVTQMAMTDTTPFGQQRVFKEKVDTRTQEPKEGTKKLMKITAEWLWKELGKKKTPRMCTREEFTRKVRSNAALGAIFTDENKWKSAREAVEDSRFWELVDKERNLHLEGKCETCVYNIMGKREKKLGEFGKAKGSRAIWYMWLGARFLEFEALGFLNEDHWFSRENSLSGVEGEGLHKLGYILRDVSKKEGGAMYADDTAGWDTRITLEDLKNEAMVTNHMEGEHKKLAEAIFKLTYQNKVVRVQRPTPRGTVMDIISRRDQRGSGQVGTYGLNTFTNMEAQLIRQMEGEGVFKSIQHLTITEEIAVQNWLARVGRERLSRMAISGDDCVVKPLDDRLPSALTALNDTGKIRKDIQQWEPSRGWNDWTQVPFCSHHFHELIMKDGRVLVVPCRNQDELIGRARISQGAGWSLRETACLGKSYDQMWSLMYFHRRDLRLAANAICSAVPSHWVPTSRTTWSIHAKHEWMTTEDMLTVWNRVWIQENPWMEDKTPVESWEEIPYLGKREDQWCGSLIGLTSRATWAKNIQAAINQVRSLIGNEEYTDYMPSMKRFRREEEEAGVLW

[13] = target: T7, Small ubiquitin-related modifier 1 (Homo sapiens, UniProt P63165); assay: inhibitors of SUMO1 partner interactions, dose response, biochemical, FRET (AID 624383); type: functional; settings: read-out: IC50_Mean
T7 sequence (P63165 whole entry): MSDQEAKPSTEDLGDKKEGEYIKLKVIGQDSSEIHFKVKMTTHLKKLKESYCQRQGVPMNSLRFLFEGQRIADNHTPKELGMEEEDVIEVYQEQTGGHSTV

[14] = target: T6, Small ubiquitin-related modifier 2; assay: SUMO2–SIM peptide binding inhibitors, dose response, selectivity assay for SUMO1 interaction inhibitor project, biochemical, fluorescence polarization, uHTS hits (AID 624385); type: functional; settings: read-out: IC50_Mean
[15] = target: T7, Small ubiquitin-related modifier 1; assay: inhibitors of SUMO1 peptide binding, dose response, biochemical, fluorescence polarization, uHTS hits (AID 624382); type: functional; settings: read-out: IC50_Mean
[16] = target: T8, Rac GTPase-activating protein 1 (Homo sapiens, UniProt Q9H0H5); assay: MgcRacGAP GTPase-activating activity inhibitors, confirmation, biochemical, ADP Hunter fluorescence, primary and confirmatory (AID 624330); type: functional
T8 sequence (Q9H0H5 whole entry): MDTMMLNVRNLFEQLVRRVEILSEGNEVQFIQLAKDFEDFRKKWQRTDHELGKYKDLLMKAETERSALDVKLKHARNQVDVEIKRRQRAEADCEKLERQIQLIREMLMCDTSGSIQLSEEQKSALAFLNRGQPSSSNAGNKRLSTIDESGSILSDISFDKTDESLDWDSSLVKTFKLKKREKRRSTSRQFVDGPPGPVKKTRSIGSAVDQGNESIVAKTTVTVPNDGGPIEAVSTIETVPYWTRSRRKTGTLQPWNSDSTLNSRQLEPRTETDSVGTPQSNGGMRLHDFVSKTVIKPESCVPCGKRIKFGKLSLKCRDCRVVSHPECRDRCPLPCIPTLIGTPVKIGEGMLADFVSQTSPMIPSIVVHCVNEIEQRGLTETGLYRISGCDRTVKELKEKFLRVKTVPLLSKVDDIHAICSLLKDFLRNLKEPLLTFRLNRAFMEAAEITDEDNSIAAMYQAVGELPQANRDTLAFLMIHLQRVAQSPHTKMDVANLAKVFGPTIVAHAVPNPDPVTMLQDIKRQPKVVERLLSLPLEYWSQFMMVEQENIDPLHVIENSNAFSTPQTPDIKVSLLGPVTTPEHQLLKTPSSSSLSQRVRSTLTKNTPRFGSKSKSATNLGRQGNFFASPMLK

[17] = target: Carboxy-terminal domain RNA polymerase II polypeptide A small phosphatase 1 (Homo sapiens, UniProt Q9GZU7); assay: inhibitors of CTDSP1, concentration-response testing, biochemical assay, absorbance-based, actives from ultra-high-throughput screening (AID 540297); type: functional
Chain of Carboxy-terminal domain RNA polymerase II polypeptide A small phosphatase 1 (Q9GZU7 whole entry, the tested form may be a part): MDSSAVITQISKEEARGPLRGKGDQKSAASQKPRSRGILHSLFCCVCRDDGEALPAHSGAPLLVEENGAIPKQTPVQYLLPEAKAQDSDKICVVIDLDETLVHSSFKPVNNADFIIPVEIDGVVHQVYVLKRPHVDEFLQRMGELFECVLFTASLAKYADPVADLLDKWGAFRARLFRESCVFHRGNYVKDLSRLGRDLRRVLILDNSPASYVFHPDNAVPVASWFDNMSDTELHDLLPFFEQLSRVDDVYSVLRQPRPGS

[18] = target: T9, Probable nicotinate-nucleotide adenylyltransferase (Staphylococcus aureus (strain N315), UniProt P65502); type: functional, Staphylococcus aureus subsp. aureus N315; settings: read-out: IC50_Mean;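 on IC50 Mean: confirmatory dose-response retesting of NadD inhibitor hits first found in an ultra-high-throughput screen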
T9 sequence (P65502 whole entry): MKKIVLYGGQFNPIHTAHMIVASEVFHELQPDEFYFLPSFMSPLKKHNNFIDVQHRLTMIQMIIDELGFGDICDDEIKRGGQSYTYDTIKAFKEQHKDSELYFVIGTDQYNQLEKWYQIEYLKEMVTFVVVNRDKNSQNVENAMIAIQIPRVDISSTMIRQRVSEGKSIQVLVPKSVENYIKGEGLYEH

[19] = target: T9, Probable nicotinate-nucleotide adenylyltransferase; type: functional, Staphylococcus aureus subsp. aureus N315
[20] = NIH/3T3 fibroblast cytotoxicity, dose response, cytotoxicity control for T. cruzi growth inhibitor project, cell-based, cherry-pick samples, set 2 (AID 651817); type: functional; settings: NIH3T3

Cc1c(OCC(=O)N(C)C)ccc2c(-c3ccccc3)cc(=O)oc12
IC50 [1]: 93.6 µM (inactive)

Cc1noc(C)c1COC(=O)c1cc(C)n(-c2ccccc2)c1C
IC50 [2]: > 20 µM (inactive) | EC50 [3]: > 53 µM (inactive) | IC50 [4]: 6.04 µM (active)

Cc1nc2ccc(NS(=O)(=O)c3ccc(F)cc3F)cc2s1
IC50 [5]: 18.4 µM (active)

COc1ccc(O)c(C(c2c(C)[nH][nH]c2=O)c2c(C)[nH][nH]c2=O)c1
IC50 [6]: 7.14 µM (active) | IC50 [7]: 33.6 µM (inactive) | EC50 (Protein RecA): 1.17 µM (active) | AC50 [8]: 1.42 µM (active)

COc1ccc(-c2cc(=O)oc3c(C)c(O)ccc23)cc1
AC50 [9]: 3.8 µM (active) | AC50 [10]: 9.72 µM (active) | AC50 [11]: 5.69 µM (active) | IC50 (Interleukin-8): > 79 µM (inactive)

CCCCCC(=O)Nc1cc(S(=O)(=O)O)cc2cc(S(=O)(=O)O)cc(O)c12
IC50 [12]: 0.92 µM (active) | IC50 (Genome polyprotein): 30 µM (active) | IC50 [13]: 2.29 µM (active) | IC50 [14]: 6.81 µM (active) | IC50 [15]: 19.2 µM (active) | IC50 [16]: 31.7 µM (active)

CC1CCCCC1NC(=O)COC(=O)c1c2c(nc3ccccc13)/C(=C\c1ccco1)CC2 (stereo not drawn)
IC50 [17]: 5.27 µM (active) | IC50 [18]: 14.6 µM (active) | IC50 [19]: 6.81 µM (active)

C[C@@H]1CN([C@@H](C)CO)C(=O)Cc2cc(NS(=O)(=O)c3ccc(F)cc3)ccc2O[C@@H]1CN(C)Cc1ccc(Cl)c(Cl)c1
AC50 [20]: 11 µM (active)
